Tests used:
Assay type in all cases: cell-based
ACKR3 [1] = biological target: T1, ACKR3 (Homo sapiens, UniProt P25106); assay: ACKR3 internalization assay by flow cytometry in U87-ACKR3 cells; parameters: expressed in transfected cells; host or cells: U87-ACKR3 (ACKR3-negative U87 as control); conditions: 45 minutes at 37° C., anti-ACKR3 mAb 11G8, FIG. 6 section A
Procedure: For determination of receptor surface expression levels by flow cytometry, U87-ACKR3 cells were stimulated with WW-1 or WW-12 (50, 10, 5 1 μM) or BAM22 or ctrl peptides (1 μM) for 45 minutes at 37° C. The remaining surface-bound ligands were then removed by a brief wash with 150 mM NaCl, 50 mM glycine, pH 3 and twice with FACS buffer. Cell surface levels of ACKR3 were then measured by flow cytometry using a saturating concentration of receptor-specific mAb (clones 11G8) and a secondary phycoerythrin-conjugated F(ab′)2 fragment anti-mouse IgG (Jackson ImmunoResearch). Dead cells were excluded using the Zombie NIR fixable viability dye (BioLegend, catalog #423106, dilution 1:2000). Mean fluorescence intensity was quantified on a Novocyte Quanteon flow cytometer (ACEA Biosciences) using NovoExpress 1.4.1 (ACEA Biosciences).

ACKR3 [2] = biological target: T1, ACKR3; assay: ACKR3 β-arrestin recruitment assay (PathHunter, β-galactosidase complementation); conditions: for Emax: read-out: ACKR3 β-arrestin % CXCL12 Emax ± SEM; for EC50: stable human ACKR3-β-arrestin-2-CHO cells, mean ± SEM, at least two independent experiments in duplicate
Procedure, shortened: (§1)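 Agonist mode in PathHunter CHO cells expressing human ACKR3-β-arrestin-2, compounds added in DPBS/1% DMSO for 1.5 hr at 37° C, then detection 1 hr at room temperature, luminescence read. CXCR4 run in C2C12 cells with a 3 hr Cell Plating Reagent 4 preincubation. EC50 and % Emax from three-parameter fits, CXCL-12 as reference agonist; ≥2 independent experiments in duplicate.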

mouse ACKR3 = biological target: T2, mouse ACKR3 (Mus musculus, UniProt P56485); assay: NanoBiT-based β-arrestin-2 recruitment assay, mouse ACKR3 in U87 cells; conditions: for agonist efficacy at mACKR3 compared to CXCL-12: NanoBiT β-arrestin-2 recruitment, reference ligand CXCL-12; for EC50: NanoBiT, U87 cells, FIG. 1 section C, read-out: EC50, β-arrestin-2 recruitment to mouse receptor (mACKR3)
T2 construct: expressed in transfected cells; host or cells: U87
T2 sequence (P56485 whole entry): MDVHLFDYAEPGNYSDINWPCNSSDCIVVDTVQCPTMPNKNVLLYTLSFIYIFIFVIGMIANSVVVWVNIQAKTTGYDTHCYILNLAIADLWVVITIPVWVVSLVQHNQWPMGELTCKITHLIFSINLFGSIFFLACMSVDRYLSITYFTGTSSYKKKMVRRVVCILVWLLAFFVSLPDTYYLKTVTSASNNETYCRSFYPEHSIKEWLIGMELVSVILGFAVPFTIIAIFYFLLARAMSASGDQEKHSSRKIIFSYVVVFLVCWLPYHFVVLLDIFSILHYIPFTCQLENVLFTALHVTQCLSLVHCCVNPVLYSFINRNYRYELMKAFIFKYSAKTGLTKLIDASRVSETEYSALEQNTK
T2 sequence (P32121 whole entry partner): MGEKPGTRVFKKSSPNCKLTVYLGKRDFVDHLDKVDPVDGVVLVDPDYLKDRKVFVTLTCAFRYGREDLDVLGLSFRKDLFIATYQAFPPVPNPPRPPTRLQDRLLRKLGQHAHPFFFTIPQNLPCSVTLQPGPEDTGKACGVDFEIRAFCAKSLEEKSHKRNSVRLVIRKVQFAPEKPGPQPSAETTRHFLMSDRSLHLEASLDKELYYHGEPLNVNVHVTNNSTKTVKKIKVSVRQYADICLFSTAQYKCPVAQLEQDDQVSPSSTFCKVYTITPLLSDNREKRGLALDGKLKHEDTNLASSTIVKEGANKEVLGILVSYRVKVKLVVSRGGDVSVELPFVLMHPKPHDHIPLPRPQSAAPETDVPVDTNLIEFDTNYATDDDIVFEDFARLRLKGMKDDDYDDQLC
Procedure: Concentration-response studies were performed with molecules WW-1 (conolidine) and WW-12 on the human and mouse ACKR3 receptors in U87 cells using a NanoBiT-based β-arrestin-2 recruitment assay […] to evaluate their efficacy and potency towards the two receptors.
Ligand-induced β-arrestin recruitment to chemokine and opioid receptors was monitored by NanoLuc complementation assay (NanoBiT, Promega). In brief, 1.2×10^6 U87 cells were plated in 10-cm culture dishes and 48 hours later co-transfected with pNBe vectors encoding GPCRs (ACKR3, MOR, DOR, KOR, or NOP) C-terminally tagged with SmBiT and human β-arrestin-1 (arrestin-2) or β-arrestin-2 (arrestin-3) N-terminally fused to LgBiT. 48 hours post-transfection cells were harvested, incubated 25 minutes at 37° C. with Nano-Glo Live Cell substrate diluted 200-fold and distributed into white 96-well plates (5×10^4 cells per well). Ligand-induced, β-arrestin to GPCRs was evaluated with a Mithras LB940 luminometer (Berthold Technologies, running on MicroWin 2010 5.19 software (Mikrotek Laborsysteme)) for 20 minutes.
For concentration-response curves (FIG. 2), the signal recorded with a saturating concentration of full agonist for each receptor was set as 100%. To evaluate the antagonist properties of ligands, full agonists of each receptor (50 nM BAM22 for MOR, 50 nM dynorphin A for KOR, 70 nM met-enkephalin for DOR, 70 nM nociceptin for NOP and 4 nM CXCL12 for ACKR3) were added after the 20-minute incubation with the ligands.

human CXCR4 = biological target: T3, human CXCR4 (Homo sapiens, UniProt P61073); assay: CXCR4 β-arrestin recruitment assay (PathHunter); conditions: human CXCR4-C2Cl2 cells, relative to CXCL-12
T3 construct: host or cells: C2C12
T3 sequence (P61073 whole entry): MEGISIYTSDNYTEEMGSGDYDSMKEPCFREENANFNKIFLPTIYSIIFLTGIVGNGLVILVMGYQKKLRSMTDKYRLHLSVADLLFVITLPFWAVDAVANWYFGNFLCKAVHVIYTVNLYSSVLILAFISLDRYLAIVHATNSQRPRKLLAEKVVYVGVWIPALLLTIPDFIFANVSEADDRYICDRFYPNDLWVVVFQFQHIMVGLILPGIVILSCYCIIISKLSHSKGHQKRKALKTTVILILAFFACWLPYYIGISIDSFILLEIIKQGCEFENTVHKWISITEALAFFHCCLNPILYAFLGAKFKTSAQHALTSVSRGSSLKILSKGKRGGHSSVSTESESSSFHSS
Procedure, shortened: as §1

ACKR3 [3] = biological target: T1, ACKR3; assay: ACKR3-mediated uptake of Cy5-labeled BAM22 in U87-ACKR3 cells (imaging flow cytometry); parameters: expressed in transfected cells; host or cells: U87-ACKR3 (ACKR3-negative U87 as control); conditions: concentration-dependent, FIG. 7
Procedure: U87-ACKR3 cells were distributed into 96-well plates (2×10^5 cells per well in Opti-MEM). After 15-minute incubation at 37° C. with WW-1 or WW-12 or controls, Cy5-labeled BAM22 was added, incubated for 40 minutes at 37° C. and washed twice with FACS buffer. Dead cells were excluded using Zombie Green viability dye. Images of 1×10^4 in-focus living single cells were acquired with an ImageStream MKII imaging flow cytometer (Amnis, running on the INSPIRE Mark II software (EMD Millipore)) using 40× magnification (60× magnification for smNPCs). Samples were analyzed using Ideas6.2 software. The number of spots per cell was determined using a mask-based software wizard.

T1 sequence (P25106 whole entry, the tested form may be a part): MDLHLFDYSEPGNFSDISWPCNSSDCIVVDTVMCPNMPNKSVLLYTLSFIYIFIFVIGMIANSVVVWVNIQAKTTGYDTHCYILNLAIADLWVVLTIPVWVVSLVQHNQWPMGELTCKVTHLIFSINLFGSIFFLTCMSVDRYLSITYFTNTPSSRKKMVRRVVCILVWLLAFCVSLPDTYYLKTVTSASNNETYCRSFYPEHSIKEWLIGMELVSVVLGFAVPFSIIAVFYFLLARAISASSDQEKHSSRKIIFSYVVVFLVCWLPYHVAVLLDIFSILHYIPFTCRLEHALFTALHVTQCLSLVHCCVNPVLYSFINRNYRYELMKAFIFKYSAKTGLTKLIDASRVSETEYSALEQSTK

ACKR3 internalization from the plasma membrane (ACKR3 [1])	Emax (ACKR3 [2]) [%]	EC50 (ACKR3 [2]) [µM]	agonist efficacy at mACKR3 compared to CXCL-12 (mouse ACKR3)	EC50 (mouse ACKR3) [µM]	CXCR4 β-arrestin % CXCL-12Emax (n = 2) (human CXCR4) [%]	inhibition of uptake of Cy5-labelled BAM22 by ACKR3 (ACKR3 [3])	SMILES
able to induce receptor internalization	181 ± 4	27.3 ± 0.44	full agonists	22	3	able to restrain the uptake	C/C=C1/CN2CC[C@H]1C(=O)c1[nH]c3ccccc3c1C2 [WW-1, (4E,5R)-4-ethylidene-1,4,5,7-tetrahydro-2,5-ethanoazocino[4,3-b]indol-6(3H)-one]
able to induce receptor internalization	140 ± 11	0.353 ± 0.019	full agonists	0.9	4	able to restrain the uptake	C/C=C1/CN(CCCCC)CC[C@H]1C(=O)c1cc2ccccc2[nH]1 [WW-12, [(3E,4R)-3-ethylidene-1-pentylpiperidin-4-yl](1H-indol-2-yl)methanone]

Reference: patent US20240059688A1, “CONOLIDINE ANALOGUES AS SELECTIVE ACKR3 MODULATORS FOR THE TREATMENT OF CANCER” (Luxembourg Institute of Health (LIH), priority 2020, published 2024)
